Assay results: BindingDB's records for patent US10323000 (Merck Patent, 2019)

Biological target: T1, P2X purinoceptor 7 (Homo sapiens, UniProt Q99572)
T1 sequence (Q99572 whole entry): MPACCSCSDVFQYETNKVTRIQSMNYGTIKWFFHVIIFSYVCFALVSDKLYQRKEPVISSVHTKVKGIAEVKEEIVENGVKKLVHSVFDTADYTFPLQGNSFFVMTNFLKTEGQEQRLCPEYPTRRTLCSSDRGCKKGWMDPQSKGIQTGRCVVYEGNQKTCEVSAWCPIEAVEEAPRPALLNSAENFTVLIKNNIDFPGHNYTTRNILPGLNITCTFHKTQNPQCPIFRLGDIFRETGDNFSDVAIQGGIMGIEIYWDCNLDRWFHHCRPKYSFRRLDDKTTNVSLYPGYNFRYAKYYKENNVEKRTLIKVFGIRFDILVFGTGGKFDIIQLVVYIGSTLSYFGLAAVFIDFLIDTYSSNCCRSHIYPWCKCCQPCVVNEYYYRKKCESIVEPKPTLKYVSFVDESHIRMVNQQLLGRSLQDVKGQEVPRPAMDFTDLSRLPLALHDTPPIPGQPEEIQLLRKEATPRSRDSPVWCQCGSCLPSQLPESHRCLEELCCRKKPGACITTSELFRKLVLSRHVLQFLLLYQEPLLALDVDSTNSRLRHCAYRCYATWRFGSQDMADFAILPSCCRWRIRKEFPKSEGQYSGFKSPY
Test: Pore Permeation Assay
Method: Agonist-induced pore formation was determined by measuring cellular uptake of YO PRO fluorescence dye in HEK293 transfected with human P2X7 receptor. A HEK293 cell over expressing human P2X7 was harvested using HQTase reagent to detach the cells from T75 cm flask. The harvested cells are centrifuged @1200 rpm for 5 min at room temperature. The viability of cells was determined by Trypan blue dye and the cells are plated @10,000 cell/well in 50 ul volume in a 384W BD Poly lysine coated plate and incubated overnight at 37 C. […] The plate was centrifuged at 1000 rpm for 5 seconds and incubated at room temperature for 30 minutes. The uptake of YO PRO dye into the cells was measured using Envision Fluorescence plate reader instrument (Perkin Elmer).

`CCN(C)C(=O)Cn1cc(C(=O)NCC2CCC(F)(F)CC2)c2c(Cl)cccc21` [US10323000, Compound 163] gave an IC50 of less than 10 nM.
